Where two headings read alike, the source gives them in different places.
Molecular target: T1, cAMP-phosphodiesterase (PDE)
T1 construct: gene PDE1A; enzyme of commercial Abcam colorimetric PDE kit
Experiment: colorimetric PDE activity kit ab139460, plate reader […] nm
Assay type: biochemical
Details: two-range dilution, measuring error 10%, isoenzyme not told, read-out: IC50 **^1

Structure (SMILES) | IC50 (control from kit) [µM] | IC50 [µM]
CC(C)Cn1c(=O)n(C)c(=O)c2[nH]cnc21 [compound 11, 3-isobutyl-1-methylxanthine] | 5 | 
OCCN(CCO)c1nc(N2CCCCC2)c2nc(N(CCO)CCO)nc(N3CCCCC3)c2n1 [10 (D10), 2,6-bis-diethanolamino-4,8-dipiperidinopyrimido(5,4-d)-pyrimidine] |  | 5

Reference: publication PMC12026006, “Phosphodiesterase Inhibition and Immunotropic Activity of Dipyridamole Dynamic Derivatives” (Current Issues in Molecular Biology, 2025)
